Measurements reported in patent US10822383B2, “Polypeptides capable of producing glucans having alpha-1,2 branches and use of the same” (E I DU PONT DE NEMOURS AND COMPANY, priority 2015, dated 2020).

Experiments:
[1] = Alpha-1,2 branching activity of GTFJ18 / GTFJ18T1 on a glucan backbone (NMR linkage profile of product); type: biochemical; details: for alpha-1,2 linkages in the product of the branching reaction / alpha-1,6 linkages in the product of the branching reaction: 10% (v/v) crude cell extract, 40 g/L sucrose, 22 hours, NMR
Source text: The alpha-1,2 branching activities of each enzyme (GTFJ18 or GTFJ18T1) were individually tested on the glucan product of the glucosyltransferase, GTF5604, which is derived from Streptococcus criceti HS-6 (GENBANK® Acc. No. WP_004226213.1, old gi: 357235604) and disclosed in International Pat. Appl. Publ. No. WO2015/183714 (also referred to therein as SG1018 glucosyltransferase or GtfHS6). GTF5604 (SEQ ID NO:33) has 1338 amino acids with the N-terminal 36 amino acids deduced as its signal peptide by the SignalP 4.0 program. The native nucleotide sequence (positions 1289627-1293643 of GENBANK Acc. No. NZ_AEUV02000002.1) encoding full length GTF5604 (SEQ ID NO:33) including its native signal peptide was synthesized by GenScript and cloned into the SpeI and HindIII sites of the replicative Bacillus expression plasmid pHYT (Takara Bio Inc., Otsu, Japan) under the B. subtilis aprE promoter. The construct was first transformed into E. coli DH10B and selected on ampicillin (100 μg/mL) plates. The confirmed clone, pDCQ918, was then transformed into Bacillus subtilis strain BG6006 (amyE::xylRPxylAcomK-ermC, degUHy32, oppA, ΔspoIIE3501, ΔaprE, ΔnprE, Δepr, ΔispA, Δbpr, Δvpr, ΔwprA, Δmpr-ybfJ, ΔnprB) and selected on tetracycline (12.5 μg/mL) plates, after which the transformed strain, termed as SG1018, was grown in LB containing 10 μg/mL tetracycline first, followed by subculturing into Grant's II medium containing 12.5 μg/mL tetracycline and growth at 37° C. for 2-3 days. The cultures were spun at 15,000×g for 30 min at 4° C. and the supernatant was filtered through 0.22-μm filters. A glucan synthesis reaction was set up containing 10% (v/v) of the SG1018 supernatant with 100 g/L sucrose, 10 mM sodium citrate pH 5 and 1 mM CaCl2. […] The glucan synthesis reaction was subjected to heat inactivation at 95° C. for 30 min.
A branching reaction was set up with 70% (v/v) of the heat-inactivated glucan synthesis reaction. The enzyme being tested for branching activity off of the above glucan product, GTFJ18 or GTFJ18T1, was provided as 10% (v/v) of the above-prepared crude cell extract from EC0059 or EC0059T1, respectively, with 40 g/L sucrose. Each branching reaction was incubated at 37° C. or 30° C. for 22 hours and the products were analyzed by HPLC for sucrose consumption and NMR for linkage profile.
NMR data were acquired on an Agilent DD2 spectrometer (Agilent Technologies, Inc., Santa Clara, Calif.) operating at 500 MHz for ^1H using a 5-mm cryogenic triple-resonance pulsed-field gradient probe. Water suppression was obtained by carefully placing the observe transmitter frequency on resonance for the residual water signal in a “presat” experiment, and then using the first slice of a NOESY experiment with a full phase cycle (multiple of 32) and a mix time of 10 ms. One-dimensional ^1H spectra were acquired with a spectral width of 6410 Hz, acquisition time of 5.1 s, 65536 data points, 4 s pre-saturation and a 90-degree observe pulse. Signal averaging typically involved accumulation of 64 scans. Sample temperature was maintained at 25° C.
Liquid samples were prepared by adding either 50 or 100 μL of completed branching reactions to a 5-mm NMR tube along with 60 μL of D2O containing 12.4 mM 4,4-dimethyl-4-silapentane-1-sulfonic acid sodium salt (DSS) as an internal chemical shift reference, and the balance (450 or 400 μL) of D2O for a total volume of […]. The DSS methyl resonance was set to 0 ppm. […]

[2] = Alpha-1,2 branching reaction with GTF9905 on products of the GTF8117 reaction; type: biochemical; details: 1.13 U/mL GTF9905, 175 g/L sucrose, 30° C., 76.2 h
Procedure: First, a reaction was performed to prepare glucan that was used in the second part of this Example as a substrate for 1,2-branching enzyme. A reaction mixture (20 mL) comprised of sucrose (488 g/L) and GTF8117 (Example 4, 9.4 U/mL) was adjusted to pH 5.5 with 6.0 N hydrochloric acid and stirred at 47° C. Aliquots were withdrawn at predetermined times and quenched by heating at 90° C. for 20 min. The resulting heat-treated aliquots were centrifuged and the supernatants analyzed by HPLC to determine the concentration of sucrose, glucose, fructose, leucrose, oligosaccharides and polysaccharides. After 6 h, the reaction mixture was heated to 90° C. for 30 minutes, and an aliquot of the heat-treated reaction mixture was centrifuged and the resulting supernatant analyzed for soluble monosaccharides, oligosaccharides and polysaccharides (DP8+) (Table 1). The DP8+ polysaccharides appeared to contain about 100% alpha-1,6 linkages.
A second reaction was then performed to conduct alpha-1,2 branching from the products of the first reaction. […] The resulting heat-treated aliquots were centrifuged and the supernatants analyzed by HPLC to determine the concentration of sucrose, glucose, fructose, leucrose, oligosaccharides and polysaccharides. […]

Molecule: GTFJ18: full length glucosyltransferase from Leuconostoc mesenteroides J18, SEQ ID NO:1 (identical to SEQ ID NO:13)
- alpha-1,2 linkages in the product of the branching reaction [1]: 0.6%
- alpha-1,6 linkages in the product of the branching reaction [1]: 97%

Molecule: GTF9905: Fructobacillus tropaeoli glucosyltransferase, SEQ ID NO:4, mature form positions 36-1672
- alpha-1,2 branching activity (in words) [2]: significant alpha-1,2 branching activity

B1: GTFJ18T1: N-terminal-truncated form of GTFJ18 (first 1664 residues removed), SEQ ID NO:27 (protein)
chain: VKGDKRTIDGVLYTFDKESGERKGLDSISVLPTNGQYTTDKAQNWYYQVDGENVKGLYTNNDGQLRYFDLTTGVQTKGNFVTIGNDTYYFTKEQGDGQIVSEVVSGHYGTVQLSDNSSAWVYRGANDQILKGLQNINGRLQYFDLTTGAQLKGGAANYDGNLYYFESSDGNLVSKIQQSYSTGNYVTDGDKVTYADEQNNQVTGLALIDDQLQYFDPSDGRQVKNEQVIVDGVTYYFDKNGNGQYLFTNTATMSTNEFAKHSAAYSNDSSSFKNTIDGFLTADTWYRPKDILENGQTWVVSSTNDVRPLITVWWLNKDVQVNYSNFMKQNGLLDTSSQFNLQSDQYDLNVAAQKVQVAIEKRISKEKSTDWLKDLLFEAHEDTPSFVKQQFIWNKDSEYQGQGDAWFQGGYLKYGNNELTPTTNSDYRESGNTLDFLLANDVDNSNPAVQAENLNWLHYLMNFGTITANDDDANFDSIRIDAVDFIDNDAIQRTYDYMRDAYKVDASEDNANKHISLVEAGLDAGTSTIKSDALVESNFREAATLSLANQSGENSSLTNMLQDIDGGQIIADHANNATENESTPNYSIIHAHDKGIQEKVGAAITDVTGADWTNFTDDQLKEGLAAYYQDQRSTNKKYNIYNLPSIYALMLTNKDTVPRVYYGDMYQDDGQYMEKQSIYYDAIVSLMNTRKSYVSGGQTMDVDEHGLLKSVRFGKDAMTASDLGTNETRTEGVGVLVGNDSSLKLNDSDTVTLEMGAAHKNQKYRAALLTTSDGIVTYDADNDAPTIWTDDRGTLTFSNKEIAGQDYTSVQGFANSQVSGYLAVWVPVGASDDQDVRTAALTDANLDDKVLHSNAALDSNLIYEGFSNFQPKATTNDELTNVVIAKNANLFEKWGITSFEMAPQYRSSGDHTFLDSTIDNGYAFTDRYDLGFETPTKYGTDKDLRTAIKALHQSNMQVMADVVDNQVYNLSGQEVVSASRAGVYGNDVSTGFGTQLYAVNSVGGGKYQAQYGGEYLNELKQQYPDLFEAKTYDYWVKNYSNDGSDPYYTLSQNTRKDMPSSEVIKQWSAKYMNGTNVLGNGMGYVLKDWNTGEYFKIGEKNADFITN
modifications: Leuconostoc mesenteroides
- alpha-1,2 linkages in the product of the branching reaction [1]: 18%
- alpha-1,6 linkages in the product of the branching reaction [1]: 82%
- alpha-1,2 branching activity (in words) ([1]; compared to full length GTFJ18): much higher alpha-1,2 branching activity
